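In this assay, cells in 96-well plates receive the compound at five concentrations for 48 hours. Endpoints are linearly interpolated between the surrounding concentrations. GI50: concentration for 50% inhibition of growth.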 Active and inactive are the calls of the source. Cut-off read from the data, not from the text of the source: active = GI50 up to about 1.1 µM and inactive = higher.
What was measured:
Assay in all cases: NCI-60 cell line screen, 48 h
CCRF-CEM = system: CCRF-CEM
RPMI-8226 = system: RPMI-8226
SR = system: SR
SNB-19 = system: SNB-19
MCF7 = system: MCF7
Malme-3M = system: Malme-3M
NCI-H460 = system: NCI-H460
MOLT-4 = system: MOLT-4
T47D = system: T47D
SK-MEL-28 = system: SK-MEL-28
SN12C = system: SN12C
SK-MEL-5 = system: SK-MEL-5
SW-620 = system: SW-620
HCT-116 = system: HCT-116
SF-268 = system: SF-268
UACC-257 = system: UACC-257
RXF 393 = system: RXF 393
BT-549 = system: BT-549
HCC 2998 = system: HCC 2998

SMILES	GI50 (CCRF-CEM)	GI50 (RPMI-8226)	GI50 (SR)	GI50 (SNB-19)	GI50 (MCF7)	GI50 (Malme-3M)	GI50 (NCI-H460)	GI50 (MOLT-4)	GI50 (T47D)	GI50 (SK-MEL-28)	GI50 (SN12C)	GI50 (SK-MEL-5)	GI50 (SW-620)	GI50 (HCT-116)	GI50 (SF-268)	GI50 (UACC-257)	GI50 (RXF 393)	GI50 (BT-549)	GI50 (HCC 2998)
NC(=S)N/N=C/c1c[nH]c2ccccc12	10.8 µM (inactive)	79.6 µM (inactive)	> 100 µM (inactive)	> 100 µM (inactive)	> 100 µM (inactive)	> 100 µM (inactive)	> 100 µM (inactive)	12.3 µM (inactive)	99.3 µM (inactive)	> 100 µM (inactive)	> 100 µM (inactive)	> 100 µM (inactive)	> 100 µM (inactive)	> 100 µM (inactive)	> 100 µM (inactive)	> 100 µM (inactive)	> 100 µM (inactive)	> 100 µM (inactive)	
COc1cc(Nc2cnc3cc(F)c(F)cc3n2)cc(OC)c1	> 100 µM (inactive)		> 100 µM (inactive)	26.2 µM (inactive)	> 100 µM (inactive)	> 100 µM (inactive)	> 100 µM (inactive)	> 100 µM (inactive)	> 100 µM (inactive)	> 100 µM (inactive)	> 100 µM (inactive)	> 100 µM (inactive)	> 100 µM (inactive)	58.1 µM (inactive)	43.7 µM (inactive)	> 100 µM (inactive)	12.2 µM (inactive)	33.9 µM (inactive)	
O=C(NC(=S)Nc1ccc2c(c1)Sc1ccccc1O2)c1ccc([N+](=O)[O-])cc1	> 100 µM (inactive)	> 100 µM (inactive)	> 100 µM (inactive)	> 100 µM (inactive)	> 100 µM (inactive)	> 100 µM (inactive)	> 100 µM (inactive)		> 100 µM (inactive)	> 100 µM (inactive)	> 100 µM (inactive)	> 100 µM (inactive)	> 100 µM (inactive)	> 100 µM (inactive)	> 100 µM (inactive)	> 100 µM (inactive)	> 100 µM (inactive)	> 100 µM (inactive)	
CN1CCc2c(sc3ncn(N)c(=N)c23)C1	36.1 µM (inactive)	> 100 µM (inactive)	63.8 µM (inactive)	> 100 µM (inactive)	> 100 µM (inactive)	> 100 µM (inactive)	> 100 µM (inactive)	> 100 µM (inactive)	> 100 µM (inactive)	> 100 µM (inactive)	> 100 µM (inactive)	> 100 µM (inactive)	> 100 µM (inactive)	> 100 µM (inactive)	> 100 µM (inactive)	> 100 µM (inactive)	> 100 µM (inactive)	> 100 µM (inactive)	
COc1ccc2[nH]cc(C=C3C(=O)NC(=S)NC3=O)c2c1	71.8 µM (inactive)		30.1 µM (inactive)	62.1 µM (inactive)	> 100 µM (inactive)	> 100 µM (inactive)	> 100 µM (inactive)	62.4 µM (inactive)	> 100 µM (inactive)	> 100 µM (inactive)	> 100 µM (inactive)	> 100 µM (inactive)	> 100 µM (inactive)	> 100 µM (inactive)	19.8 µM (inactive)	> 100 µM (inactive)	30.3 µM (inactive)	53 µM (inactive)	> 100 µM (inactive)
CCOC(=O)/C1=C(\C)N(c2ccc(C)cc2)C(=O)c2ccccc2C(=O)c2c(OC(C)=O)ccc(OC(C)=O)c21	10.8 µM (inactive)	13.8 µM (inactive)	15.8 µM (inactive)	25.2 µM (inactive)	26.1 µM (inactive)	28.1 µM (inactive)	18.3 µM (inactive)	6.27 µM (inactive)	13.7 µM (inactive)	< 0.01 µM (active)	20.4 µM (inactive)	30 µM (inactive)	34.7 µM (inactive)	15.3 µM (inactive)	37.5 µM (inactive)	21.8 µM (inactive)	22.2 µM (inactive)	25.3 µM (inactive)	
CN1CCc2c(sc3nc(S)nc(S)c23)C1	> 100 µM (inactive)	> 100 µM (inactive)	> 100 µM (inactive)	> 100 µM (inactive)	> 100 µM (inactive)	> 100 µM (inactive)	> 100 µM (inactive)	> 100 µM (inactive)	> 100 µM (inactive)	> 100 µM (inactive)	> 100 µM (inactive)	> 100 µM (inactive)	> 100 µM (inactive)	> 100 µM (inactive)	> 100 µM (inactive)	> 100 µM (inactive)	> 100 µM (inactive)	> 100 µM (inactive)	
COc1ccc(OCc2ccc3nc(-c4ccccc4)c(Cl)nc3c2)cc1	15.8 µM (inactive)	9.93 µM (inactive)	28.2 µM (inactive)	26.5 µM (inactive)	37.6 µM (inactive)	12.9 µM (inactive)	16.7 µM (inactive)	34.4 µM (inactive)	45 µM (inactive)	47.3 µM (inactive)	24.3 µM (inactive)	6.89 µM (inactive)	43.2 µM (inactive)	19.2 µM (inactive)	25.2 µM (inactive)	> 100 µM (inactive)		0.018 µM (active)	27.7 µM (inactive)

— ChEMBL document CHEMBL1201862, “PubChem BioAssay data set” (2004)
